The supplement of paper PMC10307832

Key:
Assay in all cases: relative viability (nuclei count vs DMSO), 5 days (fraction); higher = more cells survive
[1] = compound: CC1=C(C(=NN1)C)CC2=C(C3=C(S2)N(C(=O)N(C3=O)C)CC(C)C)C(=O)N4C[C@@H](CO4)O + CC(=O)Nc1cccc(-n2c(=O)n(C3CC3)c(=O)c3c(Nc4ccc(I)cc4F)n(C)c(=O)c(C)c32)c1 [Trametinib] (partner 0.02 µM)
Outline: (§1)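 Lung cancer cell lines in 1536-well plates were dosed by pin tool the day after seeding, either with one drug alone or with a fixed anchor-drug dose plus five library-drug doses (not always all listed) in √10 steps. After 5 days, cells were fixed and their nuclei stained in one step (final 0.05% Triton X-100, 1% formaldehyde, 1 ug/ml Hoechst), then counted on 4× images. Relative viability is the nuclei count in treated wells divided by that in vehicle wells. Values are medians of duplicate plates.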

IDH-C35 = compound: Cc1ccccc1C(C(=O)NC1CCCCC1)N(C(=O)Cn1ccnc1C)c1cccc(F)c1 [IDH-C35]
Outline: (§2)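 After an overnight hold at 37 °C, lung cancer cell lines in 1536-well plates were pinned with five library-drug doses (not always all listed), each √10 from the next, on vehicle-anchored plates. The cells stayed 5 days without fresh medium, then a one-step fix, permeabilisation and Hoechst stain preceded 4× imaging and MetaXpress nuclear counts. A plate passed only with control CV under 25% and at least one doubling. Viability is the median, over plates, of treated-well nuclei relative to vehicle-well nuclei.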

[2] = compound: CC1=C(C(=NN1)C)CC2=C(C3=C(S2)N(C(=O)N(C3=O)C)CC(C)C)C(=O)N4C[C@@H](CO4)O
Outline: as §2

IDH-C35 + Navitoclax = compound: Cc1ccccc1C(C(=O)NC1CCCCC1)N(C(=O)Cn1ccnc1C)c1cccc(F)c1 [IDH-C35] + CC1(C)CCC(c2ccc(Cl)cc2)=C(CN2CCN(c3ccc(C(=O)NS(=O)(=O)c4ccc(N[C@H](CCN5CCOCC5)CSc5ccccc5)c(S(=O)(=O)C(F)(F)F)c4)cc3)CC2)C1 [Navitoclax] (partner 0.5 µM)
Outline: as §1

| Cell Line | relative viability ([1]; first compound 0.0025 µM) | relative viability ([1]; first compound 0.007906 µM) | relative viability ([1]; first compound 0.025 µM) | relative viability ([1]; first compound 0.07906 µM) | relative viability ([1]; first compound 0.25 µM) | relative viability (IDH-C35; 0.08 µM) | relative viability (IDH-C35; 0.253 µM) | relative viability (IDH-C35; 0.8 µM) | relative viability (IDH-C35; 2.53 µM) | relative viability (IDH-C35; 8 µM) | relative viability ([2]; 0.0025 µM) | relative viability ([2]; 0.007906 µM) | relative viability ([2]; 0.025 µM) | relative viability ([2]; 0.07906 µM) | relative viability ([2]; 0.25 µM) | relative viability (IDH-C35 + Navitoclax; first compound 0.08 µM) | relative viability (IDH-C35 + Navitoclax; first compound 0.253 µM) | relative viability (IDH-C35 + Navitoclax; first compound 0.8 µM) | relative viability (IDH-C35 + Navitoclax; first compound 2.53 µM) | relative viability (IDH-C35 + Navitoclax; first compound 8 µM) |
| --- | --- | --- | --- | --- | --- | --- | --- | --- | --- | --- | --- | --- | --- | --- | --- | --- | --- | --- | --- | --- |
| NCI-H2342 | 0.932 | 0.751 | 0.724 | 0.854 | 0.976 | 1.02 | 0.957 | 0.901 | 0.908 | 0.891 | 1.06 | 0.935 | 1.03 | 0.975 | 0.886 | – | – | – | – | – |
| SK-MES-1 | 0.562 | 0.607 | 0.604 | 0.591 | 0.592 | 0.983 | 0.984 | 0.985 | 1.02 | 0.986 | 1.03 | 1.07 | 1.02 | 1.07 | 1.06 | 1.18 | 1.03 | 1.28 | 1.14 | 1.27 |
| HCC-366 | 0.367 | 0.501 | 0.376 | 0.455 | 0.324 | 1.04 | 1.04 | 0.97 | 0.935 | 0.934 | 0.986 | 1.03 | 1.03 | 0.988 | 1.04 | 0.937 | 1.13 | 1.03 | 0.981 | 1.01 |
| 201T | 0.715 | 0.708 | 0.713 | 0.739 | 0.694 | 0.985 | 0.983 | 1.01 | 1 | 0.958 | 1.04 | 0.983 | 0.982 | 0.96 | 0.988 | 1.18 | 1.19 | 1.19 | 1.17 | 1.19 |
| HCC-827 | 0.556 | 0.542 | 0.529 | 0.51 | 0.521 | 1.06 | 0.934 | 1.04 | 0.991 | 1.02 | 0.904 | 1.08 | 1.06 | 1.04 | 1.06 | 0.975 | 0.997 | 1.05 | 0.949 | 1.03 |
| NCI-H647 | 0.506 | 0.582 | 0.579 | 0.558 | 0.448 | 1.03 | 0.94 | 0.972 | 0.936 | 0.949 | 1.03 | 1.1 | 0.932 | 0.915 | 0.934 | 1.26 | 1.18 | 0.916 | 1.04 | 1.12 |
| NCI-H2023 | 0.667 | 0.613 | 0.562 | 0.599 | 0.575 | 0.981 | 1.08 | 0.959 | 0.981 | 0.994 | 1.03 | 1.09 | 0.934 | 0.976 | 1.03 | 1.09 | 1.01 | 0.979 | 0.962 | 1.1 |
| NCI-H520 | 0.671 | 0.824 | 0.455 | 0.457 | 0.463 | 1.01 | 1.05 | 0.87 | 0.91 | 1 | 1.03 | 0.914 | 0.644 | 0.79 | 0.628 | 1.02 | 1.15 | 1.07 | 0.933 | 1.21 |
| RERF-LC-KJ | 0.898 | 0.94 | 0.838 | 0.883 | 0.909 | 0.962 | 0.929 | 1.03 | 1.01 | 0.943 | 1.01 | 1.07 | 0.985 | 0.98 | 1.06 | 0.901 | 0.735 | 1.02 | 1.25 | 0.832 |
| A-427 | 0.748 | 0.754 | 0.809 | 0.754 | 0.763 | 1.06 | 1.01 | 0.926 | 0.991 | 1.03 | 1.04 | 1.1 | 0.996 | 1.05 | 1.1 | 0.975 | 0.975 | 0.904 | 0.949 | 0.952 |
| NCI-H441 | 0.532 | 0.424 | 0.458 | 0.478 | 0.436 | 1.11 | 0.892 | 1 | 0.982 | 0.909 | 1 | 1.05 | 0.901 | 1.08 | 1.13 | 0.694 | – | 0.568 | 0.582 | 0.675 |
| NCI-H1703 | – | – | – | – | – | 0.96 | 1.02 | 0.95 | 0.901 | 0.955 | 1.03 | 0.895 | 0.917 | 0.895 | 0.897 | 1.05 | 1.29 | 1.49 | 1.11 | 0.897 |
| NCI-H1792 | 0.471 | 0.418 | 0.409 | 0.548 | 0.585 | 0.832 | 0.862 | 0.974 | 0.969 | 1.13 | 0.933 | 0.773 | 0.751 | 0.744 | 0.736 | 0.637 | 0.593 | 0.619 | 0.621 | 0.646 |
| Calu-6 | – | – | – | – | – | 1.05 | 0.968 | 1.03 | 0.997 | 0.937 | 1.04 | 1.01 | 0.982 | 1.03 | 1.03 | 0.838 | 0.765 | 0.997 | 0.968 | 0.78 |
